Data from ChEMBL document CHEMBL1201861, “Genomics of Drug Sensitity in Cancer screening data, Wellcome Trust Sanger Institute”.

What was measured:
MDA-MB-175-VII = assay: cells; format: functional, cell-based, Homo sapiens; conditions: Homo sapiens, MDA-MB-175-VII
BFTC-909 = assay: cells; format: functional, cell-based, Homo sapiens; conditions: Homo sapiens, BFTC-909
Description: SANGER: Inhibition of human BFTC-909 cell growth in a cell viability assay.

EVSA-T = assay: cells; format: functional, cell-based, Homo sapiens; conditions: Homo sapiens, EVSA-T;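 also: growth inhibition of EVSA-T cells, read out with a cell viability assay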
Description: SANGER: Inhibition of human EVSA-T cell growth in a cell viability assay.

HuCCT-1 = assay: cells; format: functional, cell-based, Homo sapiens, HuCCT1; conditions: Homo sapiens, HuCCT-1;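 also: growth inhibition of HuCCT-1 cells, read out by a cell viability assay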
Description: SANGER: Inhibition of human HuCCT1 cell growth in a cell viability assay.

NCI-H1963 = assay: cells; format: functional, cell-based, Homo sapiens; conditions: Homo sapiens, NCI-H1963;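 also: cell growth inhibition of the human line, determined with a cell viability assay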
Description: SANGER: Inhibition of human NCI-H1963 cell growth in a cell viability assay.

A-375 = assay: cells; format: functional, cell-based, Homo sapiens; conditions: Homo sapiens, A-375;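 also: growth inhibition of A375 cells, read out with a cell viability assay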
Description: SANGER: Inhibition of human A375 cell growth in a cell viability assay.

SBC-5 = assay: cells; format: functional, cell-based, Homo sapiens; conditions: Homo sapiens, SBC-5;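 also: cell viability assay read-out, IC50 is the concentration that inhibits growth of the cells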
Description: SANGER: Inhibition of human SBC-5 cell growth in a cell viability assay.

NUGC-3 = assay: cells; format: functional, cell-based, Homo sapiens; conditions: Homo sapiens, NUGC-3;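 also: growth inhibition of human NUGC-3 cells, read out with a cell viability assay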
Description: SANGER: Inhibition of human NUGC-3 cell growth in a cell viability assay.

LU-165 = assay: cells; format: functional, cell-based, Homo sapiens; conditions: Homo sapiens, LU-165
Description: SANGER: Inhibition of human LU-165 cell growth in a cell viability assay.

UACC-812 = assay: cells; format: functional, cell-based, Homo sapiens; conditions: Homo sapiens, UACC-812
Description: SANGER: Inhibition of human UACC-812 cell growth in a cell viability assay.

SW1573 = assay: cells; format: functional, cell-based, Homo sapiens; conditions: Homo sapiens, SW1573;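 also: growth inhibition of SW1573 cells, read out with a cell viability assay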
Description: SANGER: Inhibition of human SW1573 cell growth in a cell viability assay.

SCC-25 = assay: cells; format: functional, cell-based, Homo sapiens; conditions: Homo sapiens, SCC-25;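 also: growth inhibition of SCC-25 cells, measured with a cell viability assay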
Description: SANGER: Inhibition of human SCC-25 cell growth in a cell viability assay.

DoTc2-4510 = assay: cells; format: functional, cell-based, Homo sapiens; conditions: Homo sapiens, DoTc2-4510
NCI-H64 = assay: cells; format: functional, cell-based, Homo sapiens; conditions: Homo sapiens, NCI-H64;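 also: growth inhibition of NCI-H64 cells, read out with a cell viability assay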
Description: SANGER: Inhibition of human NCI-H64 cell growth in a cell viability assay.

TALL-1 = assay: cells; format: functional, cell-based, Homo sapiens; conditions: Homo sapiens, TALL-1;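 also: growth inhibition of cultured human TALL-1 cells, read out by a cell viability assay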
Description: SANGER: Inhibition of human TALL-1 cell growth in a cell viability assay.

SIG-M5 = assay: cells; format: functional, cell-based, Homo sapiens; conditions: Homo sapiens, SIG-M5;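 also: cell viability assay read-out, measuring how strongly growth of cultured human SIG-M5 cells is inhibited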
Description: SANGER: Inhibition of human SIG-M5 cell growth in a cell viability assay.

MDA-MB-361 = assay: cells; format: functional, cell-based, Homo sapiens; conditions: Homo sapiens, MDA-MB-361
OE33 = assay: cells; format: functional, cell-based, Homo sapiens; conditions: Homo sapiens, OE33;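 also: growth inhibition of human OE33 cells, measured by a cell viability assay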
Description: SANGER: Inhibition of human OE33 cell growth in a cell viability assay.

DMS-273 = assay: cells; format: functional, cell-based, Homo sapiens; conditions: Homo sapiens, DMS-273
Description: SANGER: Inhibition of human DMS-273 cell growth in a cell viability assay.

GCT = assay: cells; format: functional, cell-based, Homo sapiens; conditions: Homo sapiens, GCT;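 also: GCT cell line proliferation inhibition, read out with a cell viability assay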
Description: SANGER: Inhibition of human GCT cell growth in a cell viability assay.

NCI-H2171 = assay: cells; format: functional, cell-based, Homo sapiens; conditions: Homo sapiens, NCI-H2171;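 also: growth inhibition of human NCI-H2171 cells, read out by a cell viability assay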
Description: SANGER: Inhibition of human NCI-H2171 cell growth in a cell viability assay.

D-542MG = assay: cells; format: functional, cell-based, Homo sapiens; conditions: Homo sapiens, D-542MG
Description: SANGER: Inhibition of human D-542MG cell growth in a cell viability assay.

H4 = assay: cells; format: functional, cell-based, Homo sapiens; conditions: Homo sapiens, H4
Description: SANGER: Inhibition of human H4 cell growth in a cell viability assay.

A2780 = assay: cells; format: functional, cell-based, Homo sapiens; conditions: Homo sapiens, A2780;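 also: growth inhibition of A2780 cells, read out with a cell viability assay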
Description: SANGER: Inhibition of human A2780 cell growth in a cell viability assay.

MKN-28 = assay: cells; format: functional, cell-based, Homo sapiens; conditions: Homo sapiens, MKN-28;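 also: cell viability assay read-out, IC50 reflects suppression of growth of human MKN-28 cells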
Description: SANGER: Inhibition of human MKN28 cell growth in a cell viability assay.

HCC1419 = assay: cells; format: functional, cell-based, Homo sapiens; conditions: Homo sapiens, HCC1419;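 also: growth inhibition of human HCC1419 cells, read out as cell viability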
Description: SANGER: Inhibition of human HCC1419 cell growth in a cell viability assay.

NCI-H2227 = assay: cells; format: functional, cell-based, Homo sapiens; conditions: Homo sapiens, NCI-H2227;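 also: growth inhibition of the human cell line, read out with a cell viability assay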
Description: SANGER: Inhibition of human NCI-H2227 cell growth in a cell viability assay.

SK-MEL3 = assay: cells; format: functional, cell-based, Homo sapiens, SK-MEL-3; conditions: Homo sapiens, SK-MEL3;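 also: growth inhibition of human SK-MEL-3 cells, read out with a cell viability assay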
Description: SANGER: Inhibition of human SK-MEL-3 cell growth in a cell viability assay.

GAMG = assay: cells; format: functional, cell-based, Homo sapiens; conditions: Homo sapiens, GAMG;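 also: cell growth inhibition measured by a viability assay in the GAMG human cell line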
Description: SANGER: Inhibition of human GAMG cell growth in a cell viability assay.

K052 = assay: cells; format: functional, cell-based, Homo sapiens; conditions: Homo sapiens, K052;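 also: Read-out from a cell viability assay, IC50 reflecting suppression of K052 cell growth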
Description: SANGER: Inhibition of human K052 cell growth in a cell viability assay.

NCI-H524 = assay: cells; format: functional, cell-based, Homo sapiens; conditions: Homo sapiens, NCI-H524;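 also: growth inhibition of human NCI-H524 cells, read out through a cell viability assay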
Description: SANGER: Inhibition of human NCI-H524 cell growth in a cell viability assay.

EGI-1 = assay: cells; format: functional, cell-based, Homo sapiens; conditions: Homo sapiens, EGI-1;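 also: cell viability readout used to gauge growth inhibition of EGI-1 cells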
Description: SANGER: Inhibition of human EGI-1 cell growth in a cell viability assay.

HSC-4 = assay: cells; format: functional, cell-based, Homo sapiens; conditions: Homo sapiens, HSC-4;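 also: growth inhibition of human HSC-4 cells, read out with a cell viability assay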
Description: SANGER: Inhibition of human HSC-4 cell growth in a cell viability assay.

PC-3 = assay: cells; format: functional, cell-based, Homo sapiens; conditions: Homo sapiens, PC-3;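 also: cell viability assay measuring growth inhibition of PC-3 cells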
Description: SANGER: Inhibition of human PC-3 cell growth in a cell viability assay.

KYSE-270 = assay: cells; format: functional, cell-based, Homo sapiens; conditions: Homo sapiens, KYSE-270;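 also: cell growth inhibition measured with a viability assay in the human KYSE-270 line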
Description: SANGER: Inhibition of human KYSE-270 cell growth in a cell viability assay.

ME-180 = assay: cells; format: functional, cell-based, Homo sapiens; conditions: Homo sapiens, ME-180;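 also: cell viability assay measuring growth inhibition of ME-180 cells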
Description: SANGER: Inhibition of human ME-180 cell growth in a cell viability assay.

SiHa = assay: cells; format: functional, cell-based, Homo sapiens; conditions: Homo sapiens, SiHa;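 also: Viability-based readout of growth inhibition in SiHa cells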
Description: SANGER: Inhibition of human SiHa cell growth in a cell viability assay.

NCCIT = assay: SANGER: Inhibition of human NCCIT cell growth in a cell viability assay.; format: functional, cell-based; conditions: Homo sapiens, NCCIT
C32 = assay: cells; format: functional, cell-based, Homo sapiens; conditions: Homo sapiens, C32;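 also: cell viability assay, with IC50 reflecting inhibition of C32 cell growth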
Description: SANGER: Inhibition of human C32 cell growth in a cell viability assay.

LoVo = assay: cells; format: functional, cell-based, Homo sapiens; conditions: Homo sapiens, LoVo;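 also: growth inhibition of human LoVo cells, read out with a cell viability assay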
Description: SANGER: Inhibition of human LoVo cell growth in a cell viability assay.

YAPC = assay: cells; format: functional, cell-based, Homo sapiens; conditions: Homo sapiens, YAPC;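 also: growth inhibition of YAPC cells, measured with a cell viability assay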
Description: SANGER: Inhibition of human YAPC cell growth in a cell viability assay.

PF-382 = assay: cells; format: functional, cell-based, Homo sapiens; conditions: Homo sapiens, PF-382
Description: SANGER: Inhibition of human PF-382 cell growth in a cell viability assay.

NCI-H650 = assay: cells; format: functional, cell-based, Homo sapiens; conditions: Homo sapiens, NCI-H650;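 also: growth inhibition of NCI-H650 cells, read out by a viability assay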
Description: SANGER: Inhibition of human NCI-H650 cell growth in a cell viability assay.

CPC-N = assay: cells; format: functional, cell-based, Homo sapiens; conditions: Homo sapiens, CPC-N;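 also: growth inhibition of CPC-N cells, with a cell viability assay as the readout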
Description: SANGER: Inhibition of human CPC-N cell growth in a cell viability assay.

CAL-85-1 = assay: cells; format: functional, cell-based, Homo sapiens; conditions: Homo sapiens, CAL-85-1;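 also: growth inhibition of human CAL-85-1 cells, read out with a cell viability assay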
Description: SANGER: Inhibition of human CAL-85-1 cell growth in a cell viability assay.

KMS-12-PE = assay: cells; format: functional, cell-based, Homo sapiens; conditions: Homo sapiens, KMS-12-PE;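 also: growth inhibition of human KMS-12-PE cells, measured with a cell viability assay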
Description: SANGER: Inhibition of human KMS-12-PE cell growth in a cell viability assay.

NCI-H187 = assay: cells; format: functional, cell-based, Homo sapiens; conditions: Homo sapiens, NCI-H187;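 also: growth inhibition of NCI-H187 cells, read out as cell viability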
Description: SANGER: Inhibition of human NCI-H187 cell growth in a cell viability assay.

SMILES: O=C(O)c1ccc(-c2c[nH]c3ncc(-c4ccccc4)cc23)cc1C1CCCC1 [GSK-650394]
- IC50 (MDA-MB-175-VII): > 16 µM
- IC50 (BFTC-909): 14.6 µM
- IC50 (EVSA-T): > 16 µM
- IC50 (HuCCT-1): > 16 µM
- IC50 (NCI-H1963): > 16 µM
- IC50 (A-375): 5.25 µM
- IC50 (SBC-5): 14.9 µM
- IC50 (NUGC-3): > 16 µM
- IC50 (LU-165): > 16 µM
- IC50 (UACC-812): > 16 µM
- IC50 (SW1573): > 16 µM
- IC50 (SCC-25): > 16 µM
- IC50 (DoTc2-4510): > 16 µM
- IC50 (NCI-H64): > 16 µM
- IC50 (TALL-1): > 16 µM
- IC50 (SIG-M5): 4.88 µM
- IC50 (MDA-MB-361): > 16 µM
- IC50 (OE33): 4.97 µM
- IC50 (DMS-273): > 16 µM
- IC50 (GCT): > 16 µM
- IC50 (NCI-H2171): > 16 µM
- IC50 (D-542MG): > 16 µM
- IC50 (H4): > 16 µM
- IC50 (A2780): > 16 µM
- IC50 (MKN-28): 11.7 µM
- IC50 (HCC1419): > 16 µM
- IC50 (NCI-H2227): > 16 µM
- IC50 (SK-MEL3): > 16 µM
- IC50 (GAMG): 3.9 µM
- IC50 (K052): > 16 µM
- IC50 (NCI-H524): > 16 µM
- IC50 (EGI-1): > 16 µM
- IC50 (HSC-4): > 16 µM
- IC50 (PC-3): > 16 µM
- IC50 (KYSE-270): 2.41 µM
- IC50 (ME-180): > 16 µM
- IC50 (SiHa): > 16 µM
- IC50 (NCCIT): > 16 µM
- IC50 (C32): > 16 µM
- IC50 (LoVo): 9.91 µM
- IC50 (YAPC): > 16 µM
- IC50 (PF-382): > 16 µM
- IC50 (NCI-H650): 6.64 µM
- IC50 (CPC-N): 10.3 µM
- IC50 (CAL-85-1): > 16 µM
- IC50 (KMS-12-PE): > 16 µM
- IC50 (NCI-H187): > 16 µM

SMILES: COc1cccc2c1C(=O)c1c(O)c3c(c(O)c1C2=O)C[C@@](O)(C(=O)CO)C[C@@H]3O[C@H]1C[C@H](N)[C@H](O)[C@H](C)O1 [DOXORUBICIN]
- IC50 (MDA-MB-175-VII): 0.972 µM
- IC50 (BFTC-909): 0.118 µM
- IC50 (EVSA-T): > 1.02 µM
- IC50 (HuCCT-1): 0.0729 µM
- IC50 (NCI-H1963): 0.43 µM
- IC50 (A-375): 0.00917 µM
- IC50 (SBC-5): 0.0207 µM
- IC50 (NUGC-3): 0.0452 µM
- IC50 (LU-165): 0.639 µM
- IC50 (UACC-812): > 1.02 µM
- IC50 (SW1573): 0.0828 µM
- IC50 (SCC-25): 0.154 µM
- IC50 (DoTc2-4510): 0.0362 µM
- IC50 (NCI-H64): 0.133 µM
- IC50 (TALL-1): > 1.02 µM
- IC50 (SIG-M5): 0.0257 µM
- IC50 (MDA-MB-361): 0.293 µM
- IC50 (OE33): 0.426 µM
- IC50 (DMS-273): 0.0789 µM
- IC50 (GCT): 0.861 µM
- IC50 (NCI-H2171): 0.441 µM
- IC50 (D-542MG): > 1.02 µM
- IC50 (H4): 0.0716 µM
- IC50 (A2780): 0.0688 µM
- IC50 (MKN-28): 0.0319 µM
- IC50 (HCC1419): 0.632 µM
- IC50 (NCI-H2227): > 1.02 µM
- IC50 (SK-MEL3): 0.148 µM
- IC50 (GAMG): 0.06 µM
- IC50 (K052): > 1.02 µM
- IC50 (NCI-H524): > 1.02 µM
- IC50 (EGI-1): 0.598 µM
- IC50 (HSC-4): 0.0758 µM
- IC50 (PC-3): 0.957 µM
- IC50 (KYSE-270): 0.00721 µM
- IC50 (ME-180): 0.186 µM
- IC50 (SiHa): > 1.02 µM
- IC50 (NCCIT): 0.0201 µM
- IC50 (C32): > 1.02 µM
- IC50 (LoVo): 0.0818 µM
- IC50 (YAPC): > 1.02 µM
- IC50 (PF-382): 0.0672 µM
- IC50 (NCI-H650): 0.218 µM
- IC50 (CPC-N): 0.0684 µM
- IC50 (CAL-85-1): 0.0445 µM
- IC50 (KMS-12-PE): 0.418 µM
- IC50 (NCI-H187): 0.493 µM

SMILES: C=C(c1ccc(C(=O)O)cc1)c1cc2c(cc1C)C(C)(C)CCC2(C)C [BEXAROTENE]
- IC50 (MDA-MB-175-VII): > 8 µM
- IC50 (BFTC-909): > 8 µM
- IC50 (EVSA-T): > 8 µM
- IC50 (HuCCT-1): > 8 µM
- IC50 (NCI-H1963): > 8 µM
- IC50 (A-375): > 8 µM
- IC50 (SBC-5): > 8 µM
- IC50 (NUGC-3): > 8 µM
- IC50 (LU-165): > 8 µM
- IC50 (UACC-812): > 8 µM
- IC50 (SW1573): > 8 µM
- IC50 (SCC-25): > 8 µM
- IC50 (DoTc2-4510): > 8 µM
- IC50 (NCI-H64): > 8 µM
- IC50 (TALL-1): > 8 µM
- IC50 (SIG-M5): < 0.0312 µM
- IC50 (MDA-MB-361): > 8 µM
- IC50 (OE33): > 8 µM
- IC50 (DMS-273): > 8 µM
- IC50 (GCT): > 8 µM
- IC50 (NCI-H2171): > 8 µM
- IC50 (D-542MG): > 8 µM
- IC50 (H4): > 8 µM
- IC50 (A2780): > 8 µM
- IC50 (MKN-28): > 8 µM
- IC50 (HCC1419): > 8 µM
- IC50 (NCI-H2227): > 8 µM
- IC50 (SK-MEL3): > 8 µM
- IC50 (GAMG): > 8 µM
- IC50 (K052): > 8 µM
- IC50 (NCI-H524): > 8 µM
- IC50 (EGI-1): > 8 µM
- IC50 (HSC-4): > 8 µM
- IC50 (PC-3): > 8 µM
- IC50 (KYSE-270): > 8 µM
- IC50 (ME-180): > 8 µM
- IC50 (SiHa): > 8 µM
- IC50 (NCCIT): > 8 µM
- IC50 (C32): > 8 µM
- IC50 (LoVo): 5.92 µM
- IC50 (YAPC): > 8 µM
- IC50 (PF-382): > 8 µM
- IC50 (NCI-H650): > 8 µM
- IC50 (CPC-N): > 8 µM
- IC50 (CAL-85-1): > 8 µM
- IC50 (KMS-12-PE): > 8 µM
- IC50 (NCI-H187): > 8 µM
